The source of these data is patent US6878730B2, “Quaternary ammonium compounds” (Pharmacia & UpJohn, priority 2002, dated 2005).

The assay can be described thus: Aerosol treatment for dyspnea, FEV1/FVC ratio. In kind it is in vivo. As to conditions: aerosol formulation, 50 μg every 8 hr continuously for dyspnea; after a week of treatment. How it is done:
Ten minutes and 36 hours later, the mice are moved to whole body plethysmograph chambers. Bronchoconstriction is induced in mice by administration of an 80 mg/ml methacholine (MC) aerosol into the plethysmograph chambers for 5 minutes. The mice are allowed to inhale an aerosol containing 80 mg/ml methacholine following inhalation treatment with DPBS vehicle (Dulbecco's Phosphate Buffered Saline), or 80 mg/ml methacholine following inhalation treatment with 1.29 mg/ml of the title compound of example I. The average enhanced pause (Penh, lung resistance), corresponding to airflow resistance, is determined and statistically analyzed using Kruskal-Wallis one way ANOVA. In order to determine the baseline, saline aerosol (without methacholine) is also separately administered to the mice, treated with the compound of example I in an aerosol formulation, 50 μg every 8 hr continuously for dyspnea. After a week of treatment, the FEV1/FVC ratio improves to about 65%.

With `C[N+]1(Cc2cccc(N)n2)CCC(NC(=O)[C@](O)(c2ccccc2)[C@@H]2CCC(F)(F)C2)CC1.[I-]` (stereo partly drawn) [Example I, (2R)-N-[1-(6-aminopyridin-2-ylmethyl)1-methylpiperdin-4-yl]-2-[(1R)-3,3,-difluorocyclopentyl]-2-hydroxy-2-phenylacetamide iodide], the FEV1/FVC ratio result was “about 65%”.
